# Data published in patent publication US11352350B2, “IRAK degraders and uses thereof” (Kymera Therapeutics, Inc., priority 2018, dated 2022).
# Read-outs that look alike come from different tables or passages of the source.
# Assays:
# OCI-LY10 = test: CTG Cell Viability Assay - OCI-LY10; type: cell-based, human; conditions: OCI-LY10, 4 days, read-out: CTG Cell Viability Assay - OCI-LY10: Average external-IC50
# Protocol: Compound-mediated viability effect on OCI-LY10 or TMD8 was quantitatively determined using the CellTiter-Glo® Luminescent Cell Viability Assay kit from Promega (Catalog number G7570) following manufacturer's recommended procedures. […] Compounds were then added to the assay plate with final top concentration of 10 μM and 1:3 dilution series with total of 9 doses. The final DMSO concentration was normalized to 0.2%. The assay plates were incubated at 37° C. for 4 days under 5% CO2. Then the assay plate was equilibrated at room temperature for 10 minutes. […] The data was then analyzed by software Prism 7.0 from GraphPad and the dose response curves were fit using a three-parameter logistic equation to calculate IC50.
# IRAK4 = IRAK4 (Homo sapiens (Human), UniProt Q9NWZ3); test: IRAK4 MSD degradation in OCI-LY10; type: cell-based
# How it was run: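 OCI-LY10 cells treated with 8-point 1:3 dilutions (top 1 to 10 μM final) for 4 to 24 h at 37° C. Lysate IRAK4 measured by MSD sandwich immunoassay (2H9 capture, Y279 detection, SULFO-TAG anti-rabbit). DC50 from three-parameter logistic fit.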
# [1] = OCI-LY10, 4 hrs, MSD, read-out: IRAK4 MSD degradation in OCI-LY10 at 4 hrs: Average external-Abs DC50
# [2] = OCI-LY10, 24 hrs, MSD, read-out: IRAK4 MSD degradation in OCI-LY10 at 24 hrs: Average external-Abs DC50
# [3] = OCI-LY10, 4 hrs, read-out: IRAK4 MSD degradation in OCI-LY10 at 4 hrs: DC50
# [4] = OCI-LY10, 24 hrs, read-out: IRAK4 MSD degradation in OCI-LY10 at 24 hrs: DC50
# IRAK4, sequence (Q9NWZ3 whole entry): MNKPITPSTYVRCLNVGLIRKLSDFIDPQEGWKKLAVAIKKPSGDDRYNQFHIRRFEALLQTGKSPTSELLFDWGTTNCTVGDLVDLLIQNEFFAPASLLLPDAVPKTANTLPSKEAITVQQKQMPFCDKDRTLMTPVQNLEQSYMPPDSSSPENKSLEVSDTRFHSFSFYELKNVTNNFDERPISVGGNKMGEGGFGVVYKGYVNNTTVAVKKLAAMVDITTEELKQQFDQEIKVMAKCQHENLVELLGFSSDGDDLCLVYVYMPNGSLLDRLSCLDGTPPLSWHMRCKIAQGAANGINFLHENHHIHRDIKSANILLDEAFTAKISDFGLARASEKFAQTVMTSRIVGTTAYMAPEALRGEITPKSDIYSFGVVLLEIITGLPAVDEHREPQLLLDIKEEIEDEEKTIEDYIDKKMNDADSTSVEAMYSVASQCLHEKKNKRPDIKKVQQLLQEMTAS
SMILES,"IC50 (OCI-LY10; Homo sapiens, OCI-Ly10, 96 h) [nM]",DC50 (IRAK4; [1]) [nM],DC50 (IRAK4; [2]) [nM],DC50 (IRAK4; [3]) [nM],DC50 (IRAK4; [4]) [nM],IC50 (OCI-LY10) [nM]
CC[C@H]1C(COc2ncc(C#CC3CCC(CN(C)CCCOCCCc4cccc5c4n(C)c(=O)n5C4CCC(=O)NC4=O)CC3)c3cc(C(N)=O)c(OC)cc23)NC(=O)[C@H]1F (stereo partly drawn) [I-184],> 1000,10 to 100,10 to 100,–,–,–
CN(CCCOCCCN(C)C(=O)c1ccc(CNCc2ccc(-c3ccc4c(cnn4CC4CC4)c3)cc2)cc1)C[C@H]1CC[C@H](n2cc(NC(=O)c3coc(-c4ccnc(NCC5CC5)c4)n3)c(C(F)F)n2)CC1 [I-133],> 1000,> 1000,> 1000,–,–,–
O=C1CCC(N2C(=O)c3cccc(NCCCCC[C@@H]4CN(C[C@H]5CC[C@H](n6cc(NC(=O)c7cnn8ccc(N9C[C@H]%10C[C@@H]9CO%10)nc78)c(C(F)F)n6)CC5)CCO4)c3C2=O)C(=O)N1 (stereo partly drawn) [I-460],50 to 100,–,–,100 to 1000,10 to 100,–
O=C1CCC(N2C(=O)c3cccc(OCCCOC4CCN(C[C@H]5CC[C@H](n6cc(NC(=O)c7cnn8ccc(N[C@@H]9CCCC[C@@H]9O)nc78)c(C(F)F)n6)CC5)CC4)c3C2=O)C(=O)N1 (stereo partly drawn) [I-296],> 1000,10 to 100,–,–,–,–
CN(C[C@H]1CC[C@H](n2cc(NC(=O)c3cnn4ccc(N[C@@H]5CCCC[C@@H]5O)nc34)c(C(F)F)n2)CC1)C1CCN(Cc2cccc3c2n(C)c(=O)n3C2CCC(=O)NC2=O)CC1 (stereo partly drawn) [I-279],> 1000,< 10,–,–,–,–
CN(CCCN1CCO[C@@H](CNc2cccc3c2C(=O)N(C2CCC(=O)NC2=O)C3=O)C1)C[C@H]1CC[C@H](n2cc(NC(=O)c3cnn4ccc(N5C[C@H]6C[C@@H]5CO6)nc34)c(C(F)F)n2)CC1 (stereo partly drawn) [I-347],< 50,100 to 1000,10 to 100,–,–,–
CN(C[C@H]1CN(CCCNc2cccc3c2C(=O)N(C2CCC(=O)NC2=O)C3=O)CCO1)C[C@H]1CC[C@H](n2cc(NC(=O)c3cnn4ccc(N5C[C@H]6C[C@@H]5CO6)nc34)c(C(F)F)n2)CC1 (stereo partly drawn) [I-349],< 50,100 to 1000,10 to 100,–,–,–
O=C1CCC(N2C(=O)c3cccc(NCCCOC4CCN(C[C@H]5CC[C@H](n6ncc(NC(=O)c7cnn8ccc(N9C[C@H]%10CC9CO%10)nc78)c6C(=O)O)CC5)CC4)c3C2=O)C(=O)N1 (stereo partly drawn) [I-348],> 1000,> 1000,> 1000,–,–,–
CN(CCc1ccc(CNc2cccc3c2C(=O)N(C2CCC(=O)NC2=O)C3=O)cc1)C[C@H]1CC[C@H](n2cc(NC(=O)c3cnn4ccc(N5C[C@H]6C[C@@H]5CO6)nc34)c(C(F)F)n2)CC1 (stereo partly drawn) [I-359],< 50,> 1000,> 1000,–,–,–
O=C1CCC(N2C[C@@H](c3ccc(C#CCCOC4CCN(C[C@H]5CC[C@H](n6cc(NC(=O)c7cnn8ccc(N9CCC(O)CC9)nc78)c(C(F)F)n6)CC5)CC4)cc3)OC2=O)C(=O)N1 (stereo partly drawn) [I-152],> 1000,10 to 100,–,–,–,–
CN(CCN1CCN(c2cccc3c2C(=O)N(C2CCC(=O)NC2=O)C3=O)CC1)C[C@H]1CC[C@H](n2cc(NC(=O)C3CNN4C=CC(N5CCOCC5)=NC34)c(C(F)F)n2)CC1 (stereo partly drawn) [I-224],> 1000,100 to 1000,–,–,–,–
O=C1CCC(N2Cc3c(NCCCOC4CCN(C[C@H]5CC[C@H](n6cc(NC(=O)c7cnn8ccc(N9CCOCC9)nc78)c(C(F)F)n6)CC5)CC4)cccc3C2=O)C(=O)N1 (stereo partly drawn) [I-330],> 1000,–,< 10,–,–,–
CN(CC1CCN(c2cccc3c2C(=O)N(C2CCC(=O)NC2=O)C3=O)CC1)C[C@H]1CC[C@H](n2cc(NC(=O)c3cnn4ccc(N5CCOCC5)nc34)c(C(F)F)n2)CC1 (stereo partly drawn) [I-220],> 1000,> 1000,100 to 1000,–,–,–
O=C1CCC(N2C(=O)c3cccc(NCCCOC4CCN(C[C@H]5CC[C@H](n6cc(NC(=O)c7cnn8ccc(N[C@@H]9CCCC[C@@H]9O)nc78)c(C(F)F)n6)CC5)CC4)c3C2=O)C(=O)N1 (stereo partly drawn) [I-294],< 50,10 to 100,–,–,–,–
"NCC#Cc1ccc(-n2cc(NC(=O)c3coc(-c4ccnc(NCC5CC5)c4)n3)c(C(F)F)n2)cc1 [I-391, N-[l-[4-(3-aminoprop-1-ynyl)phenyl]-3-(difluoromethyl)pyrazol-4-yl]-2-[2-(cyclopropylmethylamino)-4-pyridyl]oxazole-4-carboxamide]",> 1000,> 1000,> 1000,–,–,–
COc1cc(C(=O)NCCCCCCN(C)C[C@H]2CC[C@H](n3cc(NC(=O)c4coc(-c5ccnc(NCC6CC6)c5)n4)c(C(F)F)n3)CC2)ccc1NC(=O)[C@@H]1N[C@@H](CC(C)(C)C)[C@](C#N)(c2ccc(Cl)cc2F)[C@H]1c1cccc(Cl)c1F [I-140],–,> 1000,> 1000,–,–,> 1000
CN(C[C@H]1CC[C@H](n2cc(NC(=O)c3cnn4ccc(N5CCOCC5)nc34)c(C(F)F)n2)CC1)[C@H]1C[C@H](Nc2cccc3c2C(=O)N(C2CCC(=O)NC2=O)C3=O)C1 (stereo partly drawn) [I-458],> 1000,–,–,100 to 1000,> 1000,–

SMILES,"IC50 (OCI-LY10; Homo sapiens, OCI-Ly10, 96 h) [nM]",DC50 (IRAK4; [1]) [nM],DC50 (IRAK4; [2]) [nM],DC50 (IRAK4; [3]) [nM],DC50 (IRAK4; [4]) [nM],IC50 (OCI-LY10) [nM]
Cn1c(=O)n(C2CCC(=O)NC2=O)c2cccc(CN3CCC4(CC3)CN(C[C@H]3CC[C@H](n5cc(NC(=O)c6coc(-c7ccnc(NCC8CC8)c7)n6)c(C(F)F)n5)CC3)C4)c21 (stereo partly drawn) [I-244],100 to 500,< 10,–,–,–,–
Cn1c(=O)n(C2CCC(=O)NC2=O)c2cccc(CCCOC3CCN(C[C@H]4CC[C@H](n5cc(NC(=O)c6cnn7ccc(N[C@@H]8CCCC[C@H]8O)nc67)c(C(F)F)n5)CC4)CC3)c21 (stereo partly drawn) [I-293],> 1000,10 to 100,–,–,–,–
CN(Cc1ccc(CCNc2cccc3c2C(=O)N(C2CCC(=O)NC2=O)C3=O)cc1)C[C@H]1CC[C@H](n2cc(NC(=O)c3cnn4ccc(N5CCOCC5)nc34)c(C(F)F)n2)CC1 (stereo partly drawn) [I-325],> 1000,100 to 1000,10 to 100,–,–,–
"Cn1c(=O)n([C@@H]2CCC(=O)NC2=O)c2cccc(CCCOC3CCN(C[C@H]4CC[C@H](n5cc(NC(=O)c6cnn7ccc(N8CCOCC8)nc67)c(C(F)F)n5)CC4)CC3)c21 [I-311, N-(3-(difluoromethyl)-1-((1r,4r)-4-((4-(3-(1-((R)-2,6-dioxopiperidin-3-yl)-3-methyl-2-oxo-2,3-dihydro-1H-benzo [d]imidazol-4-yl)propoxy)piperidin-1-yl)methyl)cyclohexyl)-1H-pyrazol-4-yl)-5-morpholinopyrazolo[1,5-a] pyrimidine-3-carboxamide]",> 1000,10 to 100,–,–,–,–
Cn1c(=O)n(C2CCC(=O)NC2=O)c2cccc(CN3CCC(CN4CCC(n5cc(NC(=O)c6cnn7ccc(N[C@@H]8CCCC[C@@H]8O)nc67)c(C(F)F)n5)CC4)CC3)c21 (stereo partly drawn) [I-150],< 50,10 to 100,–,–,–,–
CN(C[C@H]1CC[C@H](n2cc(NC(=O)c3cnn4ccc(N5CCOCC5)nc34)c(C(F)F)n2)CC1)C1CCC(Nc2cccc3c2C(=O)N(C2CCC(=O)NC2=O)C3=O)CC1 (stereo partly drawn) [I-221],50 to 100,< 10,–,–,–,–
O=C1CCC(n2c3cccc(CCCOC4CCN(C[C@H]5CC[C@H](n6cc(NC(=O)c7cnn8ccc(N9CCOCC9)nc78)c(C(F)F)n6)CC5)CC4)c3c3cccnc32)C(=O)N1 (stereo partly drawn) [I-196],> 1000,10 to 100,–,–,–,–
CC[C@@H]1[C@H](F)C(=O)N[C@@H]1COc1ncc(C#C[C@H]2CC[C@H](CN3CCC(OCCC#Cc4ccc([C@H]5CN(C6CCC(=O)NC6=O)C(=O)O5)cc4)CC3)CC2)c2cc(C(N)=O)c(OC)cc12 (stereo partly drawn) [I-206],> 1000,10 to 100,10 to 100,–,–,–
O=C1CCC(N2C(=O)c3cccc(N4CCC(CCCN5CCC(n6cc(NC(=O)c7cnn8ccc(N[C@@H]9CCCC[C@@H]9O)nc78)c(C(F)F)n6)CC5)CC4)c3C2=O)C(=O)N1 (stereo partly drawn) [I-298],100 to 500,100 to 1000,–,–,–,–
NCCCOCCCNC[C@H]1CC[C@H](n2cc(NC(=O)c3coc(-c4ccnc(NCC5CC5)c4)n3)c(C(F)F)n2)CC1 [I-235],> 1000,> 1000,> 1000,–,–,–
CN(CCC(C)(C)O)c1ccn2ncc(C(=O)Nc3cn([C@H]4CC[C@H](CN(C)[C@H]5CC[C@H](Nc6cccc7c6C(=O)N(C6CCC(=O)NC6=O)C7=O)CC5)CC4)nc3C(F)F)c2n1 (stereo partly drawn) [I-504],100 to 500,–,–,> 1000,10 to 100,–
Cc1ccc(-n2nc(C3CCN(C(=O)CCCCOCCCc4cccc5c4n(C)c(=O)n5C4CCC(=O)NC4=O)CC3)cc2NC(=O)c2cnn3cccnc23)nc1 (stereo not drawn) [I-160],> 1000,> 1000,> 1000,–,–,–
O=C1CCC(N2C(=O)c3cccc(NCCCOCCCOCCCN4CCC(n5cc(NC(=O)c6cnn7ccc(N8C[C@H]9C[C@@H]8CO9)nc67)c(C(F)F)n5)CC4)c3C2=O)C(=O)N1 (stereo partly drawn) [I-321],–,100 to 1000,–,–,–,> 1000
CN(C[C@H]1CC[C@H](n2cc(NC(=O)c3cnn4ccc(NCCC(C)(C)O)nc34)c(C(F)F)n2)CC1)[C@H]1CC[C@H](Nc2cccc3c2C(=O)N(C2CCC(=O)NC2=O)C3=O)CC1 (stereo partly drawn) [I-502],< 50,–,–,< 10,< 10,–
O=C1CCC(N2C(=O)c3cccc(NCC4CC5(CCN(C[C@H]6CC[C@H](n7cc(NC(=O)c8cnn9ccc(N%10C[C@H]%11C[C@@H]%10CO%11)nc89)c(C(F)F)n7)CC6)CC5)C4)c3C2=O)C(=O)N1 (stereo partly drawn) [I-373],< 50,> 1000,10 to 100,–,–,–
Cn1c(=O)n(C2CCC(=O)NC2=O)c2ccc(CN3CCC(CCCN4CCC(n5cc(NC(=O)c6coc(-c7ccnc(NCC8CC8)c7)n6)c(C(F)F)n5)CC4)CC3)cc21 (stereo not drawn) [I-254],100 to 500,10 to 100,–,–,–,–
